Twelve compounds from patent US9216962B2 (priority 2011, dated 2015) can be followed below.

In one assay the target is recombinant human HDAC1 (Homo sapiens (Human), UniProt Q13547).
Chain of recombinant human HDAC1 (Q13547 whole entry): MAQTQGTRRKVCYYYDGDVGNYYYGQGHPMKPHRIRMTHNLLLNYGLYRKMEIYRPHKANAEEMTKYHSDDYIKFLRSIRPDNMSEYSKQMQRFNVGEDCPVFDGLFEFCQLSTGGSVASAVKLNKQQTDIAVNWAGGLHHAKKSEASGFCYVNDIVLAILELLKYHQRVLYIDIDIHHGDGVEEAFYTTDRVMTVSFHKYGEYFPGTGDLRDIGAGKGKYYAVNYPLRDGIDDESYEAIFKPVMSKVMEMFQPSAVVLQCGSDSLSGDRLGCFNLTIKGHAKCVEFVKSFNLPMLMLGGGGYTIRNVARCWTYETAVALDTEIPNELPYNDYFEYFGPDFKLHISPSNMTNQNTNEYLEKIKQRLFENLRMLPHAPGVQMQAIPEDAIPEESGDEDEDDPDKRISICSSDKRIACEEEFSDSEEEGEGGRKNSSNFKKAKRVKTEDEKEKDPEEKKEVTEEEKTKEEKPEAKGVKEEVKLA
Conditions: not given
`CC(C)Cc1sc(-c2nccs2)nc1C(=O)NCC(=O)NO` [CFH340]: the “HDAC1 IC50” value is given as “NA^a”.

The assay is the same for the next values; noted with them: read-out: HDAC1 IC50.
As usually defined, the IC50 is the concentration that gives 50% inhibition. Turning to `CC(C)Cc1sc(-c2nccs2)nc1C(=O)NCCCCCCC(=O)NO` [CFH410], the half-maximal inhibitory concentration (IC50) turned out to be 178 nM.
Still for that read-out and setting: the result for `C=Cc1sc(-c2nccs2)nc1C(=O)NCCCNC(=O)CS` [CFH367-S] reads 1830 nM.
On to `O=C(CCCCNC(=O)c1nc(-c2ncc(-c3ccccc3)s2)sc1C1CC1)NO` [CFH443-5], for which the IC50 is 32 nM.
Still for that read-out and setting: to `Cc1nc(-c2nc(C(=O)NCCCCC(=O)NO)c(CC(C)C)s2)cs1` [CFH397] belongs 438 nM; to `CC(C)Cc1sc(-c2nccs2)nc1C(=O)NCCCCC(=O)Nc1ccccc1N` [CFH494], 5910 nM; to `CC(C)Cc1sc(-c2nccs2)nc1C(=O)NCCCCCCC(=O)Nc1ccccc1N` [CFH522], 15300 nM.
For the compound `Cc1nc(-c2nc(C(=O)NCCCCC(=O)NO)c(C3CC3)s2)sc1C` [CFH395-M], the IC50 came out at 50 nM.
Still for that read-out and setting: the result for `Cc1cnc(-c2nc(C(=O)NCCCCC(=O)NO)c(CC(C)C)s2)s1` [CFH397-2] reads 917 nM.
In the case of `CC(C)Cc1sc(-c2nccs2)nc1C(=O)NCCCCCC(=O)Nc1ccccc1N` [CFH508], the IC50 was 984 nM.
Same read-out and setting: to `CC(C)/C=C/c1sc(-c2nccs2)nc1C(=O)NCCCNC(=O)CS` [CFH411] belongs 956 nM; to `CC(C)Cc1sc(-c2nccs2)nc1C(=O)Nc1cccc(/C=C/C(=O)NO)c1` [CFH429], 657 nM.
